For this assay, the target named is T1, TS isolated from human ovarian CH1 cells (CH1 TS) (Homo sapiens, UniProt P04818).
T1 construct: gene TYMS; native enzyme partially purified from CH1 ovarian tumour cells (parental line), no tag
As to the kind of experiment: 3H release from [[…]-3H]dUMP, non-linear regression. The assay is classed as biochemical.

Each structure is given as a SMILES string.

T1 sequence (P04818 2-313): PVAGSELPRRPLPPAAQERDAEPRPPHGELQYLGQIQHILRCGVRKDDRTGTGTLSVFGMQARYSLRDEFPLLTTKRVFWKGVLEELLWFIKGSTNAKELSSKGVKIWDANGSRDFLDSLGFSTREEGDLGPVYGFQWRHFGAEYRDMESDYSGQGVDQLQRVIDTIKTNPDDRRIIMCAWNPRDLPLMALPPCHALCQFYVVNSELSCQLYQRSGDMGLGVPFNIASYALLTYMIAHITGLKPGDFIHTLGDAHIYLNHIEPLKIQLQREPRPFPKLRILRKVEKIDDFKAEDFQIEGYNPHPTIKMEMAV

Usually Ki stands for the equilibrium dissociation constant of an inhibitor or competing ligand from its target. The low end stands for a stronger hold on the target, the high end for a looser hold on the target. For `Cc1nc2ccc(CN(C)c3ccc(C(=O)N[C@@H](CCC(=O)N[C@@H](CCC(=O)N[C@@H](CCC(=O)O)C(=O)O)C(=O)O)C(=O)O)s3)cc2c(=O)[nH]1` [ZD1694 triglutamate], the inhibition constant Ki amounted to 1.6 ± 0.1 nM.
